Test results taken from patent publication US4565810A, “Derivatives of biliary acids, process for the production thereof and pharmaceutical compositions containing the same” (Lehner A.G., priority 1983, dated 1986).
Read-outs that look alike come from different tables or passages of the source.

Legend:
[1] = format: physicochemical
Excerpt: (§1) The [α]D, pKa, the retention factor and the critical micellar concentrations (CMC), important because related to the capacity to form micelles in the bile and function of the hydrophilic/lipophilic balance, have been determined on the A, B, C, D isomers of 22,23-methanate-ursodeoxycholic acid. The CMCs have been measured by the method of the solubilization of insoluble dyes such as Azulene and Orange OT (Roda et al., J. Biol. Chem., in press).

physchem [2] = details: c18 hplc, methanol/water; for K' (retention factor): pH 5.7
Excerpt: as §1
**K' = Retention factor. It has been calculated from the retention times
on HPLC using as stationary phase a C18 column and as mobile phase a
mixture of methanol/H2 O 130/70; pH 5.7.

physchem [3] = assay: physchem
Excerpt: as §1
*Determined by potentiometric titration.

[4] = Hepatic uptake in isolated rat livers (method of Mortimore); format: in vitro ADME; details: isolated perfused liver, mean ± SD of five determinations
bile lipid secretion = assay: Bile flow and bile lipid secretion in anaesthetized rats; format: in vivo, Sprague-Dawley rats; details: 50 mg i.v., bile collected for 5 h; for Bile flow: controls 0.55 ± 0.12, *** p < 0.01 vs. controls; for Cholesterol secretion: controls 1.66 ± 0.12, *** p < 0.01 vs. controls; for Phospholipid secretion: controls 6.92 ± 0.44, *** p < 0.01 vs. controls (CUDCA); for BA (bile acids) secretion: controls 61 ± 8
Excerpt: *The control values were obtained on five rats studied under similar
conditions to the BA treated rats. Each value represents the mean plus or
minus the SD of five determinations.

[5] = molecular target: human serum albumina (HSP) (Homo sapiens, UniProt P02768); assay: Interaction with human serum albumin (albumin affinity constant)
human serum albumina (HSP), sequence (P02768 25-609): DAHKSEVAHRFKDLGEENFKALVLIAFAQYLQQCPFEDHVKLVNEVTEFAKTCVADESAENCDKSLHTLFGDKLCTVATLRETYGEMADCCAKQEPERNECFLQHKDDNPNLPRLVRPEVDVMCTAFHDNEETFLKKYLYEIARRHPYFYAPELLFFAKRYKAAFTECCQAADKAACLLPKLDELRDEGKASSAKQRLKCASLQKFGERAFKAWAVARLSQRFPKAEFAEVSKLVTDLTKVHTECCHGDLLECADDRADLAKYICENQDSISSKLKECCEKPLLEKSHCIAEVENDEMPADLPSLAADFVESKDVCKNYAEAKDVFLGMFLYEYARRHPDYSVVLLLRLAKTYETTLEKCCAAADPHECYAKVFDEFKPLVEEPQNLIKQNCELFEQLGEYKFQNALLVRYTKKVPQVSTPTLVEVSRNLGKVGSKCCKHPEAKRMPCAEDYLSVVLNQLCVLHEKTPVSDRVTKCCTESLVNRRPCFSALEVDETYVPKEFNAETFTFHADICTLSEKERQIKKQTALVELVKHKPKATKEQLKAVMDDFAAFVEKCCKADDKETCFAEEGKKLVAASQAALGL

| Compound | CMC (H2O) [1] | CMC (Na^+ 0.15 M) [1] | K' (retention factor) (physchem [2]) | pKa (physchem [3]; pKa) | pKa (physchem [3]) | hepatic extraction ratio [4] | Bile flow (bile lipid secretion) | Cholesterol secretion (bile lipid secretion) | Phospholipid secretion (bile lipid secretion) | BA (bile acids) secretion (bile lipid secretion) | Kd [5] | chromatographic logD (physchem [2]; pH 5.7, K' (retention factor)) |
| --- | --- | --- | --- | --- | --- | --- | --- | --- | --- | --- | --- | --- |
| C[C@H](C1CC1C(=O)O)[C@H]1CC[C@H]2[C@@H]3[C@@H](O)C[C@@H]4C[C@H](O)CC[C@]4(C)[C@H]3CC[C@]12C (single isomer, unassigned) [Isom. A, 22,23-methanate-ursodeoxycholic acid] | 25 mM | 16 mM | 0.21 | 5.03 |  |  |  |  |  |  |  |  |
| C[C@H](C1CC1C(=O)O)[C@H]1CC[C@H]2[C@@H]3[C@@H](O)C[C@@H]4C[C@H](O)CC[C@]4(C)[C@H]3CC[C@]12C (single isomer, unassigned) [Isom. B, 22,23-methanate-ursodeoxycholic acid] | 20 mM | 12 mM | 0.80 |  | 5.06 |  |  |  |  |  |  |  |
| C[C@H](C1CC1C(=O)O)[C@H]1CC[C@H]2[C@@H]3[C@@H](O)C[C@@H]4C[C@H](O)CC[C@]4(C)[C@H]3CC[C@]12C (single isomer, unassigned) [Isom. C, 22,23-methanate-ursodeoxycholic acid] | 14 mM | 8 mM | 1.30 |  | 5.02 |  |  |  |  |  |  |  |
| C[C@H](C1CC1C(=O)O)[C@H]1CC[C@H]2[C@@H]3[C@@H](O)C[C@@H]4C[C@H](O)CC[C@]4(C)[C@H]3CC[C@]12C (single isomer, unassigned) [Isom. D, 22,23-methanate-ursodeoxycholic acid] | 10 mM | 6 mM | 2.05 |  | 5.04 |  |  |  |  |  |  |  |
| C[C@H](C1CC1C(=O)O)[C@H]1CC[C@H]2[C@@H]3[C@@H](O)C[C@@H]4C[C@H](O)CC[C@]4(C)[C@H]3CC[C@]12C (stereo partly drawn) [CUDCA, 3α, 7β-dihydroxy-22,23-methylene-5β-cholan-24-oic acid] |  |  |  |  |  | 0.46 ± 0.01 | 1.68 ± 0.20 mL/h | 2.70 ± 0.14 µmol/kg/h | 9.50 ± 0.44 ^.parallel.mol kg^-1 h^- | 97 ± 9 µmol/kg/h | 14.7 µM |  |
| C[C@H](CCC(=O)O)[C@H]1CC[C@H]2[C@@H]3[C@@H](O)C[C@H]4C[C@H](O)CC[C@]4(C)[C@H]3CC[C@]12C [UDCA, 3α, 7β-dihydroxy-5α-cholan-24-oic acid, reference compound] | 19 mM | 11 mM |  | 5.06 |  |  | 1.08 ± 0.15 mL/h | 2.12 ± 0.09 µmol/kg/h | 6.47 ± 0.54 ^.parallel.mol kg^-1 h^- | 98 ± 7 µmol/kg/h |  | -0.0223 |
